According to the supplement of paper PMC7021759:

System: SK-N-MM (SKNMM-MYCN, doxycycline-inducible MYCN)
Assay: area under dose-response curve (CellTiter-Glo viability normalised to plate controls) (AUC (arbitrary units)); higher = more loss of viability; extreme values may be limits of the assay
Outline: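 SK-N-MM cells carrying doxycycline-inducible MYCN were seeded in 96-well plates at 1250 cells/100 μL, and about 24 h later they received medium with or without doxycycline. Two days after that, 10-point 1:3 dilution series of compounds were added by pin transfer (890-fold dilution of stock), with a second dose on day 4. CellTiter-Glo luminescence was measured 3 or 8 days after drugging. Log2 signals were scaled against the positive and negative controls on each plate and used to calculate the area under the dose-response curve.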

[1] = MYCN induction (doxycycline): +doxycycline (MYCN induced), time after drugging: 3 days
[2] = MYCN induction (doxycycline): +doxycycline (MYCN induced), time after drugging: 8 days
[3] = MYCN induction (doxycycline): no doxycycline (MYCN not induced), time after drugging: 3 days
[4] = MYCN induction (doxycycline): no doxycycline (MYCN not induced), time after drugging: 8 days

| Compound | area under dose-response curve [1] | area under dose-response curve [2] | area under dose-response curve [3] | area under dose-response curve [4] |
| --- | --- | --- | --- | --- |
| CC1(COc2ccc3c(c2)ncn3-c2ccc3cccc(N4CCC(N)CC4)c3n2)COC1 [CRENOLANIB] | 0 | 136 | 0 | 146 |
| OCCN1CCN(CCCN2c3ccccc3Sc3ccc(C(F)(F)F)cc32)CC1 [FLUFENAZINE] | 0 | 0 | 0 | 0 |
| CC[C@@]1(O)C(=O)OCc2c1cc1n(c2=O)Cc2cc3c(CN(C)C)c(O)ccc3nc2-1 [TOPOTECAN] | 139 | 216 | 68.5 | 105 |
| O=C(NOC[C@H](O)CO)c1ccc(F)c(F)c1Nc1ccc(I)cc1F | 28.9 | 92.1 | 21.5 | 84.4 |
| CCC1(c2ccc(N)cc2)CCC(=O)NC1=O (stereo not given) [AMINOGLUTETHIMIDE] | 0 | 0 | 0 | – |
| COc1ccc(-c2cc(=O)c3c(O)cc(O)c(-c4cc(-c5cc(=O)c6c(O)cc(O)cc6o5)ccc4OC)c3o2)cc1 [ISOGINKGETIN] | – | 61.2 | 15.4 | 24.2 |
| CCN(CCO)CCCC(C)Nc1ccnc2cc(Cl)ccc12 (stereo not given) [HYDROXYCHLOROQUINE] | 0 | 0 | – | 0 |
| Cc1cnc(Nc2ccc(OCCN3CCCC3)cc2)nc1Nc1cccc(S(=O)(=O)NC(C)(C)C)c1 [FEDRATINIB] | 109 | 176 | 102 | 151 |
| Cc1c(N)nc([C@H](CC(N)=O)NC[C@H](N)C(N)=O)nc1C(=O)N[C@H](C(=O)N[C@H](C)[C@@H](O)[C@H](C)C(=O)N[C@H](C(=O)NCCc1nc(-c2nc(C(=O)NCCC[S+](C)C)cs2)cs1)[C@@H](C)O)[C@@H](OC1OC(CO)C(O)C(O)C1OC1OC(CO)C(O)C(OC(N)=O)C1O)c1cnc[nH]1 (stereo not given in full) [BLEOMYCIN] | 0 | 0 | 0 | 0 |
| Nc1nc(Cl)nc2c1ncn2[C@H]1C[C@H](O)[C@@H](CO)O1 [CLADRIBINE] | 51.7 | 225 | 35.7 | 110 |
| O=C(NC[C@H](O)CN1CCc2ccccc2C1)c1ccnc(NC2CCC2)c1 | – | 23.4 | – | – |
| COc1ccc2c(c1OC)C(=O)O[C@@H]2[C@H]1c2c(cc3c(c2OC)OCO3)CCN1C [NOSCAPINE] | 0.556 | 19.8 | 0 | – |
| COc1cc2nc(N3CCCN(C)CC3)nc(NC3CCN(Cc4ccccc4)CC3)c2cc1OC | 195 | 247 | 194 | 243 |
| CS(=O)(=O)c1ccc(C(=O)Nc2ccc(Cl)c(-c3ccccn3)c2)c(Cl)c1 [VISMODEGIB] | 0 | 0 | 0 | 0 |
| CC(C)n1c(/C=C/C(O)CC(O)CC(=O)O)c(-c2ccc(F)cc2)c2ccccc21 (stereo not given) [FLUVASTATIN] | 2.15 | 11 | 0 | 4.98 |
| O=c1[nH]cc(F)c(=O)[nH]1 [5-FLUOROURACIL] | 12.1 | 24.8 | 6.6 | 25 |
| CN(C)C1CCN(C(=O)c2ccc(NC(=O)Nc3ccc(-c4nc(N5CCOCC5)nc(N5CCOCC5)n4)cc3)cc2)CC1 [GEDATOLISIB] | 39.4 | 0 | 27.4 | 47.7 |
| N#CN=C(NCCCCCCOc1ccc(Cl)cc1)Nc1ccncc1 [GMX-1778] | 172 | 348 | 119 | 338 |
| CC/C(=C(\c1ccccc1)c1ccc(OCCN(C)C)cc1)c1ccccc1 [TAMOXIFEN] | 0 | 0 | 0 | 0 |
| O=C(c1cc(Cc2n[nH]c(=O)c3ccccc23)ccc1F)N1CCN(C(=O)C2CC2)CC1 [OLAPARIB] | 9.23 | 23.6 | – | 0 |
| COc1cc2nccc(Oc3ccc(NC(=O)Nc4cc(C)on4)c(Cl)c3)c2cc1OC [TIVOZANIB] | 0 | 0 | 0 | 0 |
| CC(=O)O[C@@H](C)/C=C\C(=O)N[C@@H]1C[C@H](C)[C@H](C/C=C(C)/C=C/[C@H]2O[C@](C)(O)C[C@@]3(CO3)[C@@H]2O)O[C@@H]1C | 13.5 | 33.2 | – | 28.1 |
| CC(C)(C)c1nc(-c2cccc(NS(=O)(=O)c3c(F)cccc3F)c2F)c(-c2ccnc(N)n2)s1 [DABRAFENIB] | 9.29 | 0 | 14.1 | 10.8 |
| O=c1[nH]c(=O)n([C@H]2C[C@H](O)[C@@H](CO)O2)cc1F [FLOXURIDINE] | 23.4 | 165 | 11.8 | 66.3 |
| Nc1ccn([C@@H]2O[C@H](CO)[C@@H](O)[C@@H]2O)c(=O)n1 [CYTARABINE] | 40.4 | 221 | 33.7 | 132 |
| O=C(O)CCCc1ccc(N(CCCl)CCCl)cc1 [CHLORAMBUCIL] | 0.922 | 0 | 0.476 | 2.34 |
